Test results from patent US5539123A, “Low molecular weight thiocarbamates as inhibitors of elastase, uses and method of synthesis” (University of Kentucky Research Foundation, priority 1994, dated 1996).

Legend:
Human Leucocyte Elastase = biological target: T1, Human Leucocyte Elastase (Homo sapiens, UniProt P08246); assay: Inactivation of Human Leucocyte Elastase (HLE-catalyzed hydrolysis of N-Methoxysuccinyl-L-Ala-L-Ala-L-Pro-L-Val-p-nitroanilide); format: biochemical; conditions: for times more potent than PC1: compared with PC1, kobs/I=3.3×10^4 M^-1 s^-1; for kinact/KI: second order rate constant, pH 7.5, 25° C., read-out: kobs/I
T1 construct: Human leucocyte elastase from human sputum was purchased from elastin corporation; purchased elastin corporation; host or cells: human sputum
T1 sequence (P08246 30-247 limits assumed): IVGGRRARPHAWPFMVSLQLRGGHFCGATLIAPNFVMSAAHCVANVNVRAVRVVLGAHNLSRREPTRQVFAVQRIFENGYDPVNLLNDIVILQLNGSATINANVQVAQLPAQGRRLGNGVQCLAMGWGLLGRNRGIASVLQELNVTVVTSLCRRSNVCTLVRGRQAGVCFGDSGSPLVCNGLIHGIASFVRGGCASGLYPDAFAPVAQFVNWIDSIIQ
Experimental: Therefore, second order rate constants (kobs /I, M^-1 s^-1), (I=concentration inhibitor molar) shown in Formula 1, were determined by following the inactivation of the enzyme for 2 hours as described in the experimental section. […] The results are plotted as % of relative remaining activity vs time which is the absolute remaining activity in the presence of inhibitor divided by the absolute remaining activity of the free enzyme in absence of inhibitor for the same time interval.
In such a case a semilog plot of the relative remaining activity (A/Ao) vs time would describe a curve approaching the fractional activity (F) at longer times whereas a semilog plot of (A/Ao-F)/(1-F) vs time will be linear with a slope equal to the kobs, the pseudofirst order rate constant (equation 2).
The inactivation of HLE enzyme appears to involve the chemical modification of one residue on the enzyme and the pseudofirst order rate constant kobs divided by the concentration of the inhibitor (I) can be used as a measure of the inhibitory activity of the compounds (equation 3).
Human leucocyte elastase from human sputum was purchased from elastin corporation. Hepes, 4-(2-hydroxyethyl)-1-piperazineethanesulfonic acid, was purchased from Aldrich Chemical Co. (Milwaukee, Wis.). Substrate N-Methoxysuccinyl-L-Ala-L-Ala-L-Pro-L-Val-p-nitroanilide was purchased from Sigma Chemicals. Absorbance was measured with a VARIAN CARY-2200 spectrophotometer at 410 nm.
5 μl of acetate buffer (0.05M Sodium Acetate adjusted with 6N HCl to ph=5.5) is added to the reference cuvette, and the cuvette is shaken for 15 seconds to mix the solution. 5 μl of HLE 3.7×10^-5 M in acetate buffer is added to the sample cuvette and the cuvette is shaken for 15 seconds. Both cuvettes were placed in the jacketed cuvette holders of the spectrophotometer and incubated at 25° C. for a fixed time interval up to 2 hours (Incubation periods of 3, 4, 5, 7, 10, 15, 20, 30, 45, 60, 90 and 120 minutes were used).
Shortly before the incubation period ends, the cuvettes are balanced at 410 nm. […] The cuvettes are shaken for 15 seconds and the absorbance is recorded at 410 nm at 1 min, 2 min and 3 min after addition of substrate. A control in which 50 μl of dimethyl sulfoxide used to dissolve the inhibitor is added in its place, is done in the same manner as above for each incubation period.
Absorbance of sample is the absolute remaining activity of HLE (A), and absorbance of control is the total activity of HLE (Ao).
% Relative Remaining Activity=(A/Ao)×100
The % relative remaining activity of the HLE for each inhibitor is plotted against the time of incubation and from the slope of the semilog plot the kobs is determined.
The equation that describes this model is:
A/Ao=(1-F)e^-Kobst +F (equation 1)
Rearranging results in a linear relationship
Ln ((A/Ao)-F/1-F)=-kobs t (equation 2)
A semilog plot results in a straight line with slope=kobs, the pseudofirst order rate constant ksec =kobs /I (equation 3)
The ksec is the second order independent rate constant that is used to compare the inhibitory activity of the compounds against HLE.

[1] = Stability in excess of methanol with normal phase HLPC/HPLC; format: physicochemical
Experimental: The flow was maintained at 1 ml/min, and a KRATOS variable UVdetector at 265 nm was used. Two separate experiments were conducted under the above conditions in which the stability of (1E) was [drawing 16] monitored in excess of methanol.
The above two experiments indicate that (1E) is consumed at the same rate as the thiol tetrazole (D) is produced. The thiol tetrazole (D) is exclusively produced from the degradation of the thiocarbamate with methanol. In other words (1E) reacts with methanol to give thiol tetrazole (D) and most probably N-n-butyl, methylcarbamate which cannot be detected under the above conditions.

[2] = inactivation followed for 2 hours

## CCCCN [Compound 1A, n-butylamine]
Human Leucocyte Elastase
  inhibition of HLE: None of the corresponding amines (1A, 2A, 3A, 4A, 5A and 6A) nor 1-phenyl-1H-tetrazole-5-thiol (D) inhibited HLE

## CCCCNC(=O)Sc1nnnn1-c1ccccc1 [Compound 1E, N-butyl, 1-phenyl-1H-tetrazole-5-thiocarbamate]
Human Leucocyte Elastase
  times more potent than PC1: 10 times
Human Leucocyte Elastase; [2]
  kinact/KI: 210000 M⁻¹ s⁻¹
[1]
  stability: fairly stable
[1]; calculated from the pseudofirst order rate constants
  half-life: 17 days

## C=CCN [Compound 2A]
Human Leucocyte Elastase
  inhibition of HLE: None of the corresponding amines (1A, 2A, 3A, 4A, 5A and 6A) nor 1-phenyl-1H-tetrazole-5-thiol (D) inhibited HLE

## C=CCNC(=O)Sc1nnnn1-c1ccccc1 [Compound 2E, N-allyl, 1-phenyl-1H-tetrazole-5-thiocarbamate]
Human Leucocyte Elastase
  times more potent than PC1: 2 times
Human Leucocyte Elastase; [2]
  kinact/KI: 61000 M⁻¹ s⁻¹

## CC(C)N [Compound 3A, isopropyl amine]
Human Leucocyte Elastase
  inhibition of HLE: None of the corresponding amines (1A, 2A, 3A, 4A, 5A and 6A) nor 1-phenyl-1H-tetrazole-5-thiol (D) inhibited HLE

## CC(C)NC(=O)Sc1nnnn1-c1ccccc1 [Compound 3E, N-isopropyl, 1-phenyl-1H-tetrazole-5-thiocarbamate]
Human Leucocyte Elastase; compared with (4E), kobs/I
  times more active than 4E: 10 times
Human Leucocyte Elastase; [2]
  kinact/KI: 3300 M⁻¹ s⁻¹

## Nc1ccccc1 [Compound 4A]
Human Leucocyte Elastase
  inhibition of HLE: None of the corresponding amines (1A, 2A, 3A, 4A, 5A and 6A) nor 1-phenyl-1H-tetrazole-5-thiol (D) inhibited HLE

## O=C(Nc1ccccc1)Sc1nnnn1-c1ccccc1 [Compound 4E, N-phenyl, 1-phenyl-1H-tetrazole-5-thiocarbamate]
Human Leucocyte Elastase; [2]
  kinact/KI: 190 M⁻¹ s⁻¹

## CCCCNCC [Compound 5A, ethyl, butylamine]
Human Leucocyte Elastase
  inhibition of HLE: None of the corresponding amines (1A, 2A, 3A, 4A, 5A and 6A) nor 1-phenyl-1H-tetrazole-5-thiol (D) inhibited HLE

## CCCCN(CC)C(=O)Sc1nnnn1-c1ccccc1 [Compound 5E, N-ethyl-N-butyl, 1-phenyl-1H-tetrazole-5-thiocarbamate]
Human Leucocyte Elastase; [2]
  kinact/KI: 180 M⁻¹ s⁻¹

## CC(C)NC(C)C [Compound 6A]
Human Leucocyte Elastase
  inhibition of HLE: None of the corresponding amines (1A, 2A, 3A, 4A, 5A and 6A) nor 1-phenyl-1H-tetrazole-5-thiol (D) inhibited HLE

## CC(C)N(C(=O)Sc1nnnn1-c1ccccc1)C(C)C [Compound 6E, N, N-diisopropyl, 1-phenyl-1H-tetrazole-5-thiocarbamate]
Human Leucocyte Elastase
  inhibition of HLE: no inhibitory activity
Human Leucocyte Elastase; [2]
  kobs/I (class symbol): N.I.

## Sc1nnnn1-c1ccccc1 [D, 1-phenyl-1H-tetrazole-5-thiol]
Human Leucocyte Elastase
  inhibition of HLE: None of the corresponding amines (1A, 2A, 3A, 4A, 5A and 6A) nor 1-phenyl-1H-tetrazole-5-thiol (D) inhibited HLE
